Results taken from patent US20150056209A1, “PEPTIDE MIMOTOPES TO OXIDATION SPECIFIC EPITOPES” (The Regents of the University of California, priority 2012, published 2015).
Bridges are numbered along the chain shown (N, C = ends). Where no end group is shown, it is not given here.

Key:
PC-specific IgM mAb EO6 = assay: Chemiluminescent ELISA, binding of EO6 to plated peptides; design: species or system murine; conditions: EO6 5 μg/mL; peptides coated at 5-10 μg/mL
Description: (A) ELISA for the binding of LRO4 to BSA, MAA-BSA, the P2 mimotope (ACNNSNMPLC-GGGS) (SEQ ID NO:3) and a scrambled peptide (ACSPNLNMNC-GGGS) (SEQ ID NO:4) of P2 (Scr.P2). Peptides were coated at 20 μg/ml, BSA and MAA-BSA at 5 μg/ml, and binding of indicated concentrations of LRO4 was determined by chemiluminescent ELISA as described in Methods. (B) ELISA for binding of LRO4 and EO6. P1, P2, BSA, MAA-BSA, nLDL, MDA-LDL, and CuOx-LDL were coated at 5-10 μg/mL. Binding of LRO4 and EO6 (both at 5 μg/mL) was determined by chemiluminescent ELISA. (C) Immunocompetition assay for the specificity of LRO4. Binding of 0.5 μg/mL LRO4 to 100 ng/mL captured biotinylated peptides P2 was measured by ELISA in the presence of increasing concentrations of P2 and scrambled P2. […]
Binding of mAb as well as plasma Abs to respective antigens was measured by chemiluminescent ELISA. […] Ab binding was measured using alkaline phosphatase (AP) labeled secondary Abs (described below) followed by chemiluminescent detection. […]

[1] = tested on: human plasma IgG and IgM autoAbs; assay: Chemiluminescent ELISA of human plasma autoAbs to coated mimotopes; assay type: binding; conditions: n=18 healthy volunteers, plasma 1:400
Description: Binding of mAb as well as plasma Abs to respective antigens was measured by chemiluminescent ELISA. Antigens were coated at 5 μg/mL in PBS/EDTA (pH 7.4). Synthetic peptides were directly coated at 10 μg/mL (P1) or 5 μg/mL (P2) in 0.1M NaHCO3 buffer (pH 8.6), unless indicated differently. Biotinylated peptides were immobilized at indicated concentrations in 0.1M NaHCO3 buffer (pH 8.6) on wells pre-coated with 10 μg/mL neutravidin (Pierce, Rockford, Ill., USA). Ab binding was measured using alkaline phosphatase (AP) labeled secondary Abs (described below) followed by chemiluminescent detection. For the detection of human autoAbs, a 1:400 plasma dilution was used. […]
The following secondary Abs were used: Alkaline Phosphatase (AP)-labeled goat anti-mouse IgM (μ-chain specific), IgG (γ-chain specific), IgG1 (Sigma-Aldrich) and IgG2c (Southern Biotech). […] Biotin-conjugated Abs were detected with AP-conjugated neutravidin (1:10,000; Pierce).
Human plasma samples from two independent studies were analyzed for the presence of anti-peptide Abs. […] For these studies, autoAb titers to MDA-LDL as the antigen have already been reported, to allow ready comparisons to the new data generated here. […]
Statistical analyses were performed with GraphPad Prism 5 for Windows (Graphpad Software, Inc., San Diego, Calif.). […] For continuous variables, differences were evaluated by one-way analysis of variances (ANOVA). […]

apoptotic Jurkat T-cells = assay: Flow cytometry, LRO4 binding to apoptotic Jurkat T-cells; assay type: cell-based; conditions: UV-induced apoptotic Jurkat T-cells; increasing concentrations of soluble peptide
Description: Binding of LRO4 IgM to apoptotic Jurkat T-cells was assessed by flow cytometry. Apoptosis of Jurkat cells was induced by UV irradiation (UV Stratalinker, Stratagene, USA) at 20 mJ/cm^2, followed by further incubation of the cells in serum free medium for 14-16 hours. After washing in FACS buffer (PBS with 0.1% BSA) 10^6 cells were incubated with 1 μg LRO4 in 100 μl FACS buffer for 30 minutes at 4° C. In parallel experiments, cells were incubated with LRO4 in the presence of increasing concentrations of P1, P2, and an irrelevant control peptide. Following a washing step, cells were stained with FITC-labeled anti-mouse IgM (II/41, BD Biosciences-Pharmingen) in 100 μL staining buffer for 30 minutes at 4° C. in darkness and washed again. Thereafter, cells were incubated with PE-labeled Annexin-V and 7-AAD (BD Bioscience-Pharmingen) in Annexin-V binding buffer for 15 minutes and immediately analyzed by flow cytometry using a BD LSR II analyzer (BD Bioscience, San Jose, Calif., USA). More than 5.0×10^4 cells were acquired per sample, and data analysis was performed using FlowJo software (Tree Star Inc, San Carlos, Calif., USA).

LRO4 [2] = assay: Competition immunoassays for LRO4 binding; design: species or system murine; conditions: 0.5 μg/mL LRO4, increasing concentrations of soluble competitor; for competition for LRO4 binding to captured biotinylated P1: 100 ng/mL captured P1; for competition for LRO4 binding to captured biotinylated P2: 100 ng/mL captured P2; for competition for LRO4 binding to coated MAA-BSA: 0.5 μg/mL coated MAA-BSA
Description: (§1) The specific binding of LRO4 to mimotopes was determined by competition immunoassays. Fifty μl of 0.5 μg/mL MAA-BSA or 100 ng/mL of biotinylated peptides were plated as described above. LRO4 antibody was incubated in TBS-1% BSA with or without increasing concentrations of competitors (BSA, MAA-BSA, P1, P2 and control peptide) for 30 minutes at RT. Binding of LRO4 was determined by chemiluminescent ELISA. The specificity of human plasma Ab binding to P1 was determined in a similar manner. In preliminary experiments, aliquots of pooled plasma samples (n=26) from a published cohort of healthy subjects were diluted in 1% BSA-TBS to yield a limiting plasma dilution. Diluted plasma (1:1,000) and increasing concentrations of competitors were incubated overnight at 4° C. Samples were then centrifuged at 15,800 g for 45 minutes at 4° C. to pellet immune complexes, and supernatants were analyzed for binding to plated P1 (10 μg/mL) by chemiluminescent ELISA.

LRO4 [3] = assay: Chemiluminescent ELISA, binding of LRO4 to plated or captured peptides; design: species or system murine; conditions: peptides directly plated at increasing concentrations; LRO4 5 μg/mL
Description: (§2) Binding of mAb as well as plasma Abs to respective antigens was measured by chemiluminescent ELISA. Antigens were coated at 5 μg/mL in PBS/EDTA (pH 7.4). Synthetic peptides were directly coated at 10 μg/mL (P1) or 5 μg/mL (P2) in 0.1M NaHCO3 buffer (pH 8.6), unless indicated differently. Biotinylated peptides were immobilized at indicated concentrations in 0.1M NaHCO3 buffer (pH 8.6) on wells pre-coated with 10 μg/mL neutravidin (Pierce, Rockford, Ill., USA). Ab binding was measured using alkaline phosphatase (AP) labeled secondary Abs (described below) followed by chemiluminescent detection. For the detection of human autoAbs, a 1:400 plasma dilution was used. For human assays, internal controls consisting of high and low standard plasma samples were included on each microtiter plate to detect potential variations between microtiter plates. The intra-assay coefficients of variation for all assays were 10 to 14%.
(§3) The following secondary Abs were used: Alkaline Phosphatase (AP)-labeled goat anti-mouse IgM (μ-chain specific), IgG (γ-chain specific), IgG1 (Sigma-Aldrich) and IgG2c (Southern Biotech). For the detection of human autoAbs AP-labeled goat anti human IgG (γ-chain specific) and IgM (μ-chain specific) (Sigma-Aldrich) were used. Biotin-conjugated Abs were detected with AP-conjugated neutravidin (1:10,000; Pierce).

[4] = tested on: human MDA-specific IgG Fab IK17; assay: ELISA for binding of the human monoclonal Fab IK17; conditions: antigens coated; biotinylated IK17 at increasing concentrations
Description: ELISA for binding of the human monoclonal Fab IK17. P1, P2, and MAA-BSA were coated onto microtiter plates, and biotinylated IK17 (Biot.IK17) was added at indicated concentrations. Binding was detected by chemiluminescent detection using AP-conjugated neutravidin. Values are given as relative light units (RLU) per 100 ms and represent the mean±SD of triplicate determinations.
as §2, §3

[5] = tested on: human plasma IgM and IgG Abs; assay: Immunocompetition assay, human plasma Ab binding to plated P1; conditions: pooled human plasma 1:1,000; increasing concentrations of soluble competitor
Description: as §1

Row | Substance | binding of EO6 to plated peptides (PC-specific IgM mAb EO6) | IgG and IgM titers in plasma of healthy volunteers [1] | inhibition of LRO4 binding to apoptotic cells (apoptotic Jurkat T-cells) | competition for LRO4 binding to captured biotinylated P1 (LRO4 [2]) | competition for LRO4 binding to captured biotinylated P2 (LRO4 [2]) | competition for LRO4 binding to coated MAA-BSA (LRO4 [2]) | binding of LRO4 to plated peptides (LRO4 [3]) | binding of IK17 [4] | inhibition of binding of IgM and IgG Abs to plated P1 [5]
1 | ACNNSNMPLC (disulfide 2-10 (inferred); not fully specified (C-terminus)) [P2] | did not react | Plasma of all individuals contained both IgG and IgM titers | fully inhibited | fully competed | fully competed | effectively competed | bound by LRO4 in a dose dependent manner | in a dose-dependent manner | 
2 | ACSPNLNMNC (ACSPNLNMNCGGGS-NH2; cysteine pairing not given here) [scrambled peptide of P2, reference compound] |  |  |  |  | had no effect |  | not recognized by LRO4 |  | 
3 | HSWTNSWMATFL (not fully specified (C-terminus)) [P1] | did not react | Plasma of all individuals contained both IgG and IgM titers |  | did not compete | did not compete | did not have an effect | bound by LRO4 in a dose dependent manner | in a dose-dependent manner | 
4 | IMGVGAVGAGAI (Control peptide) [irrelevant control peptide, reference compound] |  |  | not | had no effect | had no effect |  |  |  | 
5 | MAA-BSA: malondialdehyde-acetaldehyde (MAA)-modified BSA [reference compound] |  |  |  | fully competed | fully competed | effectively competed |  | bound | nearly completely inhibited
